Results reported in patent publication US20180125921A1, “USE OF QBP1 PEPTIDE FOR THE INHIBITION OF MEMORY CONSOLIDATION” (CONSEJO SUPERIOR DE INVESTIGACIONES CIENTÍFICAS, priority 2015, published 2018).
Residues, ends and D or L forms follow the SMILES beside them.

Key:
Drosophila melanogaster = conditions: for short-term memory (courtship suppression immediately after training) / long-term memory (courtship suppression after 24 hours): Elav-Gal4 driven expression; for short-term memory (courtship suppression immediately after training): 5 min after training; for long-term memory (courtship suppression after 24 hours): 24 h after training; for effect on fly development / normal courtship behaviour: expression in the nervous system; for normal courtship behaviour: untrained flies
Orb2A PLD [1] = assay: Far-UV CD spectroscopy of Orb2A PLD over time; conditions: peptide five fold molar excess, 37° C.
Description: (§1) Buffers, time and storage conditions, and protein/peptide concentrations used in the aforementioned techniques were as follows: • AFM-SMFS: Experiments were performed using 2-3 μM polyproteins in 10 mM Tris-HCl pH 7.5 at room temperature with proteins incubated at 4° C. between sessions and NTA-Ni2+ functionalized coverslips. For experiments in the presence of the peptides QBP1 and SCR, 20 μM of the peptide were used dissolved in DMSO, and the samples were incubated overnight with the peptide at 4° C. before the measurement. • CD: For far-UV CD spectra it was used a protein concentration of 2-5 μM in 5 mM NaH2PO4, with 0.02% NaN3, pH 6.0. […] The secondary structure content of each protein and its evolution during incubation were estimated by spectra deconvolution using the CDNN analysis program (Bohm, G., et al., Quantitative analysis of protein far UV circular dichroism spectra by neural networks, Protein Eng (1992) 5 (3): 191-5). For thermal stability measurements, the ellipticity changes induced by increasing the temperature (at a constant heating rate of 60° C./h) were measured at 222 nm in 5 mM NaH2PO4 pH 6.0 using a protein concentration of 20 μM. • Turbidimetry: Protein samples used were at 10 μM in PBS+0.02% NaN3, pH 7.0 for all the kinetic experiments. […]

Orb2A PLD [2] = assay: TEM imaging of Orb2A PLD oligomers and fibers; conditions: protein 10 μM, peptide 50 μM, 7 days at 37° C.
Description: as §1

Orb2A PLD [3] = assay: AFM-SMFS conformational polymorphism of Orb2A PLD; conditions: 20 μM peptide
Description: Buffers, time and storage conditions, and protein/peptide concentrations used in the aforementioned techniques were as follows: • AFM-SMFS: Experiments were performed using 2-3 μM polyproteins in 10 mM Tris-HCl pH 7.5 at room temperature with proteins incubated at 4° C. between sessions and NTA-Ni2+ functionalized coverslips. For experiments in the presence of the peptides QBP1 and SCR, 20 μM of the peptide were used dissolved in DMSO, and the samples were incubated overnight with the peptide at 4° C. before the measurement. • CD: For far-UV CD spectra it was used a protein concentration of 2-5 μM in 5 mM NaH2PO4, with 0.02% NaN3, pH 6.0. The QBP1 or SCR (when used) was five fold molar excess relative to proteins (final concentrations 10 to 25 μM with the final concentration (v/v) of DMSO below 0.01%). After recording the first protein spectrum (hour 0), the protein was incubated at 37° C. without stirring and additional spectra were collected at the indicated times. The secondary structure content of each protein and its evolution during incubation were estimated by spectra deconvolution using the CDNN analysis program (Bohm, G., et al., Quantitative analysis of protein far UV circular dichroism spectra by neural networks, Protein Eng (1992) 5 (3): 191-5). For thermal stability measurements, the ellipticity changes induced by increasing the temperature (at a constant heating rate of 60° C./h) were measured at 222 nm in 5 mM NaH2PO4 pH 6.0 using a protein concentration of 20 μM. • Turbidimetry: Protein samples used were at 10 μM in PBS+0.02% NaN3, pH 7.0 for all the kinetic experiments. Samples were incubated at 37° C. without stirring. SCR and QBP1 peptides were used at 50 μM. • CR binding assay: Samples were aged for 7 days at 37° C. with 0.02% NaN3 and no stirring prior to performing the measurements. The protein samples (10 μM) were dialyzed in PBS pH 7.0 for the experiments. SCR and QBP1 peptides were used at 50 μM. • TEM imaging: Protein samples (10 μM) were dialyzed in PBS pH 7.0 for all the TEM measurements. Images were taken after 7 days of incubation at 37° C. in the presence of 0.02% NaN3 without stirring.

full-length Orb2A = full-length Orb2A (Drosophila melanogaster, UniProt Q9VSR3); assay: Isothermal titration calorimetry (ITC) of peptide interaction with Orb2A; conditions: 25° C., PBS pH 7.4, Orb2A injected into excess peptide; no quantitative analysis
full-length Orb2A, sequence (Q9VSR3 1-551 isoform Q9VSR3-2): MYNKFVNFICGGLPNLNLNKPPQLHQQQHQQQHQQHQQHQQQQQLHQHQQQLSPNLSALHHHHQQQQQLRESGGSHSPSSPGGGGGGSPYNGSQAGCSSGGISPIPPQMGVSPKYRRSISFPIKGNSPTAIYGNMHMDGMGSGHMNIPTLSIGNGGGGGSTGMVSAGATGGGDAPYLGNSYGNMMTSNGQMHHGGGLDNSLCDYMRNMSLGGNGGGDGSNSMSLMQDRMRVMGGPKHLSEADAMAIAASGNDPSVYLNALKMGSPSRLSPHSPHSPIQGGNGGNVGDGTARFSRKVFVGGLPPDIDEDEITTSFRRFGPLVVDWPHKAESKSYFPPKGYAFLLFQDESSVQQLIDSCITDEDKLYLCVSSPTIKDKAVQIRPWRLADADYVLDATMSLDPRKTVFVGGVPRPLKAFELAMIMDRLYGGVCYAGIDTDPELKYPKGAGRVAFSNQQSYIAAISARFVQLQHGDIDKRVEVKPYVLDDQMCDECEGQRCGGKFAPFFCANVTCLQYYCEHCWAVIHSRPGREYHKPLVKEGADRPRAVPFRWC
Description: Proteins were equilibrated in PBS, pH 7.4, by gel-filtration chromatography and the equilibration buffer was used to prepare the peptide solutions. Protein/peptide binding was tested by successive injections of protein sample (10 to 25 μl each) into the reaction cell loaded with peptide at high final [peptide]/[protein] molar ratios. The apparent heat of reaction for each injection was obtained by integration of the peak area. The heats developed on protein or peptide dilutions were determined in separate runs loading the sample cell or the injection syringe with buffer, respectively, in the conditions used for the binding experiments. […] Protein (Orb2A, 185 μM) and ligand (QBP1 and SCR, 300 μM and 51 μM, respectively) concentrations in the loading solutions were measured spectrophotometrically using their respective extinction coefficients. • Drosophila strains.

Orb2A PLD [4] = assay: CR binding assay of Orb2A PLD amyloid; conditions: protein 10 μM, peptide 50 μM, aged 7 days at 37° C.
Description: as §1

Orb2A PLD [5] = assay: Turbidimetry of Orb2A PLD amyloidogenesis; conditions: protein 10 μM, peptide 50 μM, 37° C., turbidity at 405 nm
Description: as §1

-synuclein = -synuclein (Homo sapiens, UniProt P37840); conditions: cited from earlier work
Sup35 = biological target: T1, Sup35 (Saccharomyces cerevisiae, UniProt P05453); conditions: cited from earlier work
T1 sequence (P05453 1-253 limits assumed): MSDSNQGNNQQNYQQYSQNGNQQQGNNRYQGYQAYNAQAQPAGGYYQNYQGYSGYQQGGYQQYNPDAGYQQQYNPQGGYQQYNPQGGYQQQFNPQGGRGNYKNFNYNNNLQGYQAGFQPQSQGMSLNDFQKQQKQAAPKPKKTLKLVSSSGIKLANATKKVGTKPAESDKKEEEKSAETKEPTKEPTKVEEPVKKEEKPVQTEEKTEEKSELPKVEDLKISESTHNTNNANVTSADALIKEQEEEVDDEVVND

Tau = Tau (Homo sapiens, UniProt P10636); conditions: personal communication; cited from earlier work
Tau, sequence (P10636 whole entry): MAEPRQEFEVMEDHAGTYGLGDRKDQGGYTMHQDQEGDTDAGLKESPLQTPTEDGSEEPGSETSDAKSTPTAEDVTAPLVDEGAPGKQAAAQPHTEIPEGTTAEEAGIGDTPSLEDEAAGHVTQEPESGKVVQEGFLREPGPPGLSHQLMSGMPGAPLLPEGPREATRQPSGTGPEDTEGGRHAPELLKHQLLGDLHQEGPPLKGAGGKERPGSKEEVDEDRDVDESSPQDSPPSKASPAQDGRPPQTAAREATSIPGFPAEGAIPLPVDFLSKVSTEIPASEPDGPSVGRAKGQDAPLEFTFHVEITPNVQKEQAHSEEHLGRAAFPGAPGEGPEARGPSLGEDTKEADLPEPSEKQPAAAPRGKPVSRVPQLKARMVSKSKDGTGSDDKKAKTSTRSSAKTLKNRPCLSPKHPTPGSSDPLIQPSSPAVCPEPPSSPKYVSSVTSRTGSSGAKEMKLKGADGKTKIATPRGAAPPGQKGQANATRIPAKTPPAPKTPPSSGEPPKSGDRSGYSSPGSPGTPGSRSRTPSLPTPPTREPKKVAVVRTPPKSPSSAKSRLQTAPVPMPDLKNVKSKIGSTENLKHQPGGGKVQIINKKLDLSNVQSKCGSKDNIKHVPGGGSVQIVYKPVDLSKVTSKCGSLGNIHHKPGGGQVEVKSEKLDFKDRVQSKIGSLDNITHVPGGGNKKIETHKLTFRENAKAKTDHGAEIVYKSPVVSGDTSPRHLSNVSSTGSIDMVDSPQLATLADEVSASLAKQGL

polyQ tracks = conditions: administered orally; cited from earlier work
[6] = system: monomeric expanded polyQ proteins; conditions: cited from earlier work

Molecule | short-term memory (courtship suppression immediately after training) (Drosophila melanogaster) | long-term memory (courtship suppression after 24 hours) (Drosophila melanogaster) | effect on fly development (Drosophila melanogaster) | normal courtship behaviour (Drosophila melanogaster) | oligomerization and loss of far-UV CD signal due to aggregation and precipitation (Orb2A PLD [1]) | formation of oligomers and fibers by TEM (Orb2A PLD [2]) | effect on NM/M conformational transition (SMFS) (Orb2A PLD [3]; overnight 4° C.) | interaction with Orb2A by ITC (full-length Orb2A) | Orb2A PLD amyloidogenesis monitored by CR binding (Orb2A PLD [4]) | Orb2A PLD amyloidogenesis monitored by turbidimetry (Orb2A PLD [5]) | putative M events (SMFS incomplete recordings) (Orb2A PLD [3]) | structures formed per molecule (SMFS force peaks) (Orb2A PLD [3]) | formation of M conformers (SMFS) (Orb2A PLD [3]; overnight 4° C., reduced from 37.7%) [%] | amyloidogenesis (conformational polymorphism, oligomerization, fibrillogenesis) (-synuclein) | amyloidogenesis (conformational polymorphism, oligomerization, fibrillogenesis) (Sup35) | amyloidogenesis (Tau) | amyloidogenesis of polyQ tracks in Drosophila (polyQ tracks) | β-conformational transition, oligomerization, fibrillogenesis, cytotoxicity and neurodegeneration of expanded polyQ proteins [6]
CC[C@H](C)[C@H](NC(=O)[C@@H]1CCCN1C(=O)[C@H](Cc1c[nH]c2ccccc12)NC(C)=O)C(=O)N[C@@H](Cc1c[nH]c2ccccc12)C(=O)N[C@@H](CCCCN)C(=O)NCC(=O)N[C@@H](Cc1c[nH]c2ccccc12)C(=O)N[C@@H](Cc1ccccc1)C(N)=O [SCR, Ac-WPIWKGWF-NH2] (Ac-WPIWKGWF-NH2) | does not interfere with short-term memory | no effect | did not affect fly development | slightly diminished | not | not | no effect | marginal interaction | – | – | – | – | – | – | – | – | – | –
CC[C@H](C)[C@H](NC(=O)CNC(=O)[C@@H]1CCCN1C(=O)[C@H](Cc1c[nH]c2ccccc12)NC(=O)[C@H](Cc1c[nH]c2ccccc12)NC(=O)[C@H](CCCCN)NC(=O)[C@H](Cc1c[nH]c2ccccc12)NC(C)=O)C(=O)N[C@@H](Cc1ccccc1)C(N)=O [QBP1-f, Ac-WKWWPGIF-NH2] (Ac-WKWWPGIF-NH2) | does not interfere with short-term memory | loss of long-term memory | did not affect fly development | slightly diminished | suppressed the oligomerization processes and decreased the loss of signal due to aggregation and precipitation | dramatic reduction in the formation of both oligomers and fibers | – | physically interacts with Orb2A | inhibited Orb2A PLD amyloidogenesis | inhibited Orb2A PLD amyloidogenesis | fewer putative M events | fewer structures formed per molecule | 16.1 | – | – | – | – | –
QBP1: polyglutamine binding peptide 1, hydrophobic peptide, known inhibitor of amyloids including HttQ expansions (SNWKWWPGIFD; QBP1) | – | – | – | – | – | – | – | – | – | – | – | – | – | inhibits amyloidogenesis | inhibits amyloidogenesis | not | can inhibit amyloidogenesis | suppressing oligomerization, fibrillogenesis as well as associated cytotoxicity and neurodegeneration
